Values after ≈ are worked out from the molar mass of the structure shown.
Tests used:
MKN-45 = assay: Antitumor activity against human MKN45 cells xenografted in po dosed nu/nu CD1 mouse model assessed as tumor growth inhibition administered qd for 14 days; assay type: functional; settings: MKN-45, po, 336 h
SNU-5 [1] = assay: Antitumor activity against human SNU5 cells xenografted in nu/nu CD1 mouse model assessed as maximum tumor regression at 100 mg/kg, po qd for 20 days
[2] = Antitumor activity against human U87MG cells xenografted in nu/nu CD1 mouse model assessed as maximum tumor regression at 50 mg/kg, po qd for 14 days; assay type: functional, U-87MG ATCC
Mus musculus [3] = assay: Inhibition of MET autophosphorylation at Y1234/1235 in human MKN45 cells xenografted in mouse at 100 mg/kg, po up to 8 hrs; assay type: functional; settings: MKN-45, 8 h
[4] = Volume of distribution at steady state in CD1 mouse at 2 mg/kg, iv; assay type: ADME, organism-based; parameters: dose 2 mg/kg, route intravenous; settings: in vivo, read-out: Vdss
Salmonella typhimurium = assay: Mutagenic activity in Salmonella typhimurium TA100 by Ames test in presence of liver S9 fraction; assay type: toxicity, organism-based; settings: salmonella enterica subsp. enterica serovar typhimurium
[5] = Permeability of the compound at pH 7.4 by PAMPA; assay type: ADME; settings: read-out: permeability
[6] = target: T1, Vascular endothelial growth factor receptor 2 (Homo sapiens, UniProt P35968); assay: Inhibition of KDR autophosphorylation in HUVEC
[7] = Antitumor activity against human U87MG cells xenografted in nu/nu CD1 mouse model assessed as maximum tumor regression at 100 mg/kg, po qd for 14 days; assay type: functional, U-87MG ATCC
Mus musculus [8] = assay: Inhibition of cMET autophosphorylation at Y1234/1235 in human MKN45 cells xenografted in nu/nu CD1 mouse at 100 mg/kg, po qd for 14 days measured after 24 hrs of last dose; assay type: functional; settings: MKN-45
[9] = Solubility of the compound at pH 4.5; assay type: physicochemical; settings: buffer
SNU-5 [10] = assay: Antitumor activity against human SNU5 cells xenografted in nu/nu CD1 mouse model assessed as maximum tumor regression at 50 mg/kg, po qd for 20 days
[11] = Protein binding in human plasma by equilibrium dialysis; assay type: ADME, cell-free; settings: read-out: PPB (converted)
[12] = AUC (0 to last) in Sprague-Dawley rat at 20 mg/kg, po; assay type: ADME, organism-based; parameters: time 0 - last, dose 20 mg/kg, route oral; settings: plasma
Mus musculus [13] = assay: Toxicity in human U87MG cells xenografted nu/nu CD1 mouse model assessed as body weigh loss at 100 mg/kg, po qd for 14 days; assay type: organism-based, U-87MG ATCC; parameters: dose 100 mg/kg, route oral; settings: in vivo, 336 h
Mus musculus [14] = assay: Toxicity in human U87MG cells xenografted nu/nu CD1 mouse model assessed as body weigh loss at 100 mg/kg, po bid for 14 days; assay type: organism-based, U-87MG ATCC; parameters: dose 100 mg/kg, route oral; settings: in vivo, 336 h
[15] = target: T1, Vascular endothelial growth factor receptor 2; assay: Inhibition of KDR (unknown origin) autophosphorylation
Mus musculus [16] = assay: Toxicity in human U87MG cells xenografted nu/nu CD1 mouse model assessed as body weigh loss at 200 mg/kg, po qd for 14 days; assay type: organism-based, U-87MG ATCC; parameters: dose 200 mg/kg, route oral; settings: in vivo, 336 h
[17] = Half life in Sprague-Dawley rat at 2 mg/kg, iv; assay type: ADME, organism-based; parameters: dose 2 mg/kg, route intravenous; settings: in vivo
[18] = target: Hepatocyte growth factor receptor (Homo sapiens, UniProt P08581); assay: Inhibition of cMET in human MKN45 cells assessed as phosphorylated MET levels after 4 hrs; assay type: cell-based, MKN-45
[19] = Solubility of the compound at pH 3; assay type: physicochemical; settings: buffer
[20] = target: Hepatocyte growth factor receptor (Homo sapiens, UniProt P08581, Y1230C); assay: Inhibition of cMET Y1230C mutant (unknown origin) autophosphorylation
[21] = target: Macrophage-stimulating protein receptor (Homo sapiens, UniProt Q04912); assay: Inhibition of RON (unknown origin) autophosphorylation

For C[C@@H](Oc1c(N)ncc2c(C3=CCN(C(N)=O)CC3)coc12)c1c(Cl)ccc(F)c1Cl, the ED50 (MKN-45) was 50 mg/kg, the Activity (SNU-5 [1]) was 64% and the Activity [2] was 0%. For the same molecule, the inhibition in vivo at 100 mg/kg (Mus musculus [3]) was greater than 80%, the Vd [4] was 3.8 L/kg and the Activity (Salmonella typhimurium) was “Non-toxic”. For the same molecule, the Papp [5] was 359 ×10⁻⁶ cm/s, the IC50 [6] was 6100 nM and the Activity [7] was 0%. For the same molecule, the inhibition in vivo at 100 mg/kg (Mus musculus [8]) was greater than 90%, the solubility [9] was 11 µM (≈ 5.12 µg/mL) and the Activity (SNU-5 [10]) was 31%. For the same molecule, the fraction unbound [11] was 0.019, the AUC(0-t) [12] was 6200 ng·h/mL and the Activity (Mus musculus [13]) was 0%. The Activity (Mus musculus [14]) was 0%, the IC50 [15] was 1300 nM and the Activity (Mus musculus [16]) was 0%. It also gave a half-life [17] of 2 h, an IC50 [18] of 42 nM and a solubility [19] greater than 100 µM. For the same molecule, the IC50 [20] was 72 nM and the IC50 [21] was 25 nM.

Source: ChEMBL document CHEMBL2401646 (Bioorg Med Chem Lett, 2013)
